In publication PMC6272448, “Synthesis, ^18F-Radiolabelling and Biological Characterization of Novel Fluoroalkylated Triazine Derivatives for in Vivo Imaging of Phosphodiesterase 2A in Brain via Positron Emission Tomography” (Molecules, 2015):

Assays:
[1] = target: T1, PDE2A (Rattus norvegicus, UniProt Q01062); test: in vitro autoradiography on sagittal rat brain sections; assay type: binding; conditions: sagittal rat brain slices, ~1 MBq/mL, 60 min incubation
T1 construct: from tissue; host or cells: sagittal brain sections of female SPRD rats
T1 sequence (Q01062 1-928): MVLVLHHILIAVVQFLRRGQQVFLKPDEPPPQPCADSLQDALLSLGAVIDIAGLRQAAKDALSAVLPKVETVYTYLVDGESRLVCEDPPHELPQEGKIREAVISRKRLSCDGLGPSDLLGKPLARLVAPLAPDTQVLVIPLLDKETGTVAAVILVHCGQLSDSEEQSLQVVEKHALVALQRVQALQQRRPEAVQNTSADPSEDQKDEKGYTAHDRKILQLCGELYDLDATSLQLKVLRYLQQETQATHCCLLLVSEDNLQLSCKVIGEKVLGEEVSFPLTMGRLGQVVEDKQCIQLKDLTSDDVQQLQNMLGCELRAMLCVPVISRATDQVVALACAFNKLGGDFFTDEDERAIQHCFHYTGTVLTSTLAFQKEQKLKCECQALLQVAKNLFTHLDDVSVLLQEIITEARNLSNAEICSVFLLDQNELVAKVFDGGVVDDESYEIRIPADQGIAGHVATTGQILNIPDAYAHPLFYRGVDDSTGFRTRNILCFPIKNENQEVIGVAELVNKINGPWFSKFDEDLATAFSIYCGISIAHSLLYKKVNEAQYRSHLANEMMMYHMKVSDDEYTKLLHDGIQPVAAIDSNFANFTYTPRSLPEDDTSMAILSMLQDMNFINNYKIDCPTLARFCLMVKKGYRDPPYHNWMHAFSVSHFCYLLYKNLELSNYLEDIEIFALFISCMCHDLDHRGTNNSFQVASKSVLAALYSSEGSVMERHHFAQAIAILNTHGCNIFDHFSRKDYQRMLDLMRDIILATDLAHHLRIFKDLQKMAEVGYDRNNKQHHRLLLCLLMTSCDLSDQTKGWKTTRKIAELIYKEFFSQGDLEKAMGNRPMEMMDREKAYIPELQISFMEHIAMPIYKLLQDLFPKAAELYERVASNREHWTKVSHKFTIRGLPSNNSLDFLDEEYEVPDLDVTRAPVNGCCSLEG
Description: In vitro autoradiographic studies were accomplished by incubating sagittal sections of rat brain with [^18F]TA3 or [^18F]TA4. […] The images shown in Figure 6 indicate region-specific accumulation of both radioligands [^18F]TA3 and [^18F]TA4, which is consistent with the distribution pattern of PDE2A protein in rat brain [9, 11]. Therefore, we assume that the novel radioligands might be appropriate for in vitro imaging of PDE2A.
Frozen sagittal brain sections obtained from female SPRD rats (10–12 weeks old) were thawed, dried in a stream of cold air, and preincubated for 20 min with incubation buffer (50 mM TRIS-HCl, pH 7.4, 120 mM NaCl, 5 mM KCl, 2 mM CaCl2, 5 mM MgCl2) at ambient temperature. Brain sections were incubated with ~1 MBq/mL of [^18F]TA3 or [^18F]TA4 in incubation buffer for 60 min at ambient temperature. Afterwards sections were washed twice with 50 mM TRIS-HCl (pH 7.4) for 2 min at 4 °C, dipped briefly in ice-cold deionized water, dried in a stream of cold air and exposed for 60 min to an ^18F-sensitive image plate that was analyzed afterwards using an image plate scanner (HD-CR 35; Duerr NDT GmbH, Bietigheim Bissingen, Germany).

[2] = in vivo metabolism in mice, micellar HPLC (MLC); conditions: CD-1 mice, 30 min p.i.; for intact radioligand in brain: brain homogenate; for intact radioligand in plasma: direct injection
Source text: Therefore we used micellar HPLC (MLC), because this method allows the direct injection of plasma samples without deproteination. MLC was recently investigated by Nakao et al. regarding their suitability for direct plasma metabolite analysis of PET radioligands. As eluent a mixture of an aqueous solution of sodium dodecyl sulphate (SDS), phosphate buffer and 1-propanol was used. According to the published procedure, a gradient mode was applied starting under micellar conditions to completely elute the protein fraction and release the protein bound ^18F-compounds by the SDS micelles. Subsequent increase of the amount of 1-propanol as organic modifier leads to high submicellar conditions resulting in the elution of the intact radioligand and its radio-metabolites.
The radioligands [^18F]TA3 or [^18F]TA4 (~60 MBq in 150 µL isotonic saline) were injected via the tail vein in female CD-1 mice (10–12 weeks old). Brain and blood samples were obtained at 30 min p.i., plasma separated by centrifugation (14,000× g, 1 min), and brain homogenized in ~1 mL isotonic saline on ice (10 strokes of a PTFE plunge at 1000 rpm in a borosilicate glass cylinder; Potter S Homogenizer, B. Braun Melsungen AG, Melsungen, Germany).
For preparation of the MLC injection samples, mouse plasma (20–50 µL, 30 min p.i.) was dissolved in 100–300 µL of 200 mM aqueous SDS and injected directly into the MLC system (500 µL sample loop; column: Reprosil-Pur C18-AQ, 250 × 4.6 mm, particle size: 10 µm; gradient: 0–15 min: 3% 1-PrOH, 15–40 min: 3% → 30% 1-PrOH; 40–49 min: 30% 1-PrOH, 49–50 min: 30% → 3% 1-PrOH; 50–60 min: 3% 1-PrOH/100 mM SDS, 10 mM Na2HPO4; flow: 1 mL/min; ambient temperature). […] Homogenized brain material (100–200 µL, 30 min p.i.) was dissolved in 500 µL of 200 mM aqueous SDS, stirred at 75 °C for 5 min and after cooling to ambient temperature injected into the MLC system.

COc1ccc2nnc3c(C)nc(-c4cc(OCCC[18F])ccc4F)n3c2n1 [[^18F]TA3]
regional binding in autoradiography [1]: higher binding densities in cortex and striatum than in cerebellum | intact radioligand in brain [2]: 29 % of total activity | intact radioligand in plasma [2]: 5 % of total activity

COc1ccc2nnc3c(C)nc(-c4cc(OCCCC[18F])ccc4F)n3c2n1 [[^18F]TA4]
regional binding in autoradiography [1]: also binds to the olfactory tubercle, colliculi and partly to cerebellum | intact radioligand in brain [2]: 4 % of total activity | intact radioligand in plasma [2]: 5 % of total activity
